Data: patent publication US20200222474A1, “COMPOSITIONS AND METHODS FOR INCREASING PHYTOCHEMICAL BIOAVAILABLITY AND BIOACTIVITY” (North Carolina State University, priority 2017, published 2020)

System: L. acidophilus NCFM
Assay: RNA-seq transcriptional analysis of L. acidophilus NCFM growing on plant glycosides
Assay type: cell-based, Lactobacillus acidophilus
[1] = LBA0329 Putative cell division protein, COG D
[2] = LBA0466 Hypothetical protein, COG C
[3] = LBA0500 MSM operon repressor, COG K
[4] = LBA0545 Hypothetical protein, COG L
[5] = LBA0547 Putative site-specific recombinase, COG L
[6] = LBA0573 Putative transcriptional regulator, COG K
[7] = LBA0607 Putative transcriptional regulator, COG K
[8] = LBA0672 Putative phosphate starvation inducible protein stress related, COG J
[9] = LBA0753 Multi-drug-type permease, COG GEPR
[10] = LBA0886 Sugar kinase-putative transcriptional regulator, COG KG
[11] = LBA0887 Hypothetical protein, COG C
[12] = LBA0897 Putative Cro-like protein, COG K
[13] = LBA0910 L-lactate dehydrogenase, COG C
[14] = LBA1021 Putative transcriptional regulator, COG K
[15] = LBA1220 Pyridine mercuric reductase, COG C
[16] = LBA1392 Mucus binding protein precursor Mub, COG J
[17] = LBA1411 Fumarate reductase flavoprotein subunit, COG CS
[18] = LBA1436 Glycerol uptake facilitator protein, COG G
[19] = LBA1457 Galactose-1-epimerase, COG G
[20] = LBA1458 Galactose-1-phosphate uridylyltransferase, COG G
[21] = LBA1462 Beta-galactosidase, COG G
[22] = LBA1463 Lactose permease, COG G
[23] = LBA1465 Transcription repressor of beta-galactosidasegene, COG K
[24] = LBA1467 Beta-galactosidase large subunit (lactase), COG G
[25] = LBA1468 Beta-galactosidase small subunit, COG G
[26] = LBA1481 D-ribose-binding protein precursor, COG G
[27] = LBA1482 Ribose ABC transporter, COG G
[28] = LBA1483 Ribose ABC transporter ATP binding protein, COG G
[29] = LBA1484 D-ribose pyranase, COG G
[30] = LBA1494 Lincomycin-resistance protein, COG GEPR
[31] = LBA1607 Phosphatidylserine decarboxylase precursor, COG I
[32] = LBA1632 NAD-dependent aldehyde dehydrogenase, COG C
[33] = LBA1653 Nicotinamide mononucleotide, COG H
[34] = LBA1684 Putative PTS system IIA component, COG G
[35] = LBA1689 Maltose-6′-phosphate Oucosidase, COG G
[36] = LBA1700 Transcriptional regulator-type, COG K
[37] = LBA1701 Melibiose operon regulatory protein, COG K
[38] = LBA1705 PTS system IIBC component, COG G
[39] = LBA1708 Transcriptional antiterminator, COG K
[40] = LBA1710 Thermostable pullulanase, COG G
[41] = LBA1812 Alpha-glucosidase II, COG G
[42] = LBA1870 Maltose phosphorylase, COG G
[43] = LBA1872 Oligo-1,6-glucosidase, COG G
[44] = LBA1955 Transcription regulator family protein, COG K
[45] = gene LBA0046 (Hypothetical protein)
[46] = gene LBA0149 (Putative nucleotide-binding protein)
[47] = gene LBA0263 (Hypothetical protein)

N#C[C@H](O[C@@H]1O[C@H](CO[C@@H]2O[C@H](CO)[C@@H](O)[C@H](O)[C@H]2O)[C@@H](O)[C@H](O)[C@H]1O)c1ccccc1 [Amygdalin]
Log2 differential normalized TPM ratio compared to glucose (LBA0016 Fructokinase, COG KG): 2.4
Log2 differential normalized TPM ratio compared to lactose (LBA0016 Fructokinase, COG KG): 1.2
Transcripts per million (rpm) (LBA0016 Fructokinase, COG KG): 387.4 rpm
Log2 differential normalized TPM ratio compared to glucose [1]: −0.1
Log2 differential normalized TPM ratio compared to lactose [1]: −0.5
Transcripts per million (rpm) [1]: 12.3 rpm
Log2 differential normalized TPM ratio compared to glucose [2]: 5.2
Log2 differential normalized TPM ratio compared to lactose [2]: 3.7
Transcripts per million (rpm) [2]: 2769.5 rpm
Log2 differential normalized TPM ratio compared to glucose [3]: 2
Log2 differential normalized TPM ratio compared to lactose [3]: 0.4
Transcripts per million (rpm) [3]: 169.5 rpm
Log2 differential normalized TPM ratio compared to glucose [4]: 2
Log2 differential normalized TPM ratio compared to lactose [4]: 0
Transcripts per million (rpm) [4]: 244.7 rpm
Log2 differential normalized TPM ratio compared to glucose [5]: 1.5
Log2 differential normalized TPM ratio compared to lactose [5]: −0.3
Transcripts per million (rpm) [5]: 24.9 rpm
Log2 differential normalized TPM ratio compared to glucose [6]: −1.5
Log2 differential normalized TPM ratio compared to lactose [6]: −1.6
Transcripts per million (rpm) [6]: 26.5 rpm
Log2 differential normalized TPM ratio compared to glucose [7]: 2.7
Log2 differential normalized TPM ratio compared to lactose [7]: 2.2
Transcripts per million (rpm) [7]: 252.9 rpm
Log2 differential normalized TPM ratio compared to glucose [8]: 2.7
Log2 differential normalized TPM ratio compared to lactose [8]: 1.9
Transcripts per million (rpm) [8]: 8689.6 rpm
Log2 differential normalized TPM ratio compared to glucose [9]: −0.6
Log2 differential normalized TPM ratio compared to lactose [9]: 0.1
Transcripts per million (rpm) [9]: 26.1 rpm
Log2 differential normalized TPM ratio compared to glucose [10]: 2.2
Log2 differential normalized TPM ratio compared to lactose [10]: 2
Transcripts per million (rpm) [10]: 25.1 rpm
Log2 differential normalized TPM ratio compared to glucose [11]: 2.4
Log2 differential normalized TPM ratio compared to lactose [11]: 1.2
Transcripts per million (rpm) [11]: 247 rpm
Log2 differential normalized TPM ratio compared to glucose [12]: −2.3
Log2 differential normalized TPM ratio compared to lactose [12]: 0.2
Transcripts per million (rpm) [12]: 0.4 rpm
Log2 differential normalized TPM ratio compared to glucose [13]: 3.9
Log2 differential normalized TPM ratio compared to lactose [13]: 2.9
Transcripts per million (rpm) [13]: 1594.3 rpm
Log2 differential normalized TPM ratio compared to glucose [14]: −1.2
Log2 differential normalized TPM ratio compared to lactose [14]: −1.5
Transcripts per million (rpm) [14]: 52.4 rpm
Log2 differential normalized TPM ratio compared to glucose [15]: 1.2
Log2 differential normalized TPM ratio compared to lactose [15]: 0.2
Transcripts per million (rpm) [15]: 377.5 rpm
Log2 differential normalized TPM ratio compared to glucose [16]: 0.8
Log2 differential normalized TPM ratio compared to lactose [16]: 1.1
Transcripts per million (rpm) [16]: 148.6 rpm
Log2 differential normalized TPM ratio compared to glucose [17]: 4
Log2 differential normalized TPM ratio compared to lactose [17]: 2.9
Transcripts per million (rpm) [17]: 28.7 rpm
Log2 differential normalized TPM ratio compared to glucose [18]: 7.2
Log2 differential normalized TPM ratio compared to lactose [18]: 3.5
Transcripts per million (rpm) [18]: 328.8 rpm
Log2 differential normalized TPM ratio compared to glucose [19]: 2.6
Log2 differential normalized TPM ratio compared to lactose [19]: −3
Transcripts per million (rpm) [19]: 74.9 rpm
Log2 differential normalized TPM ratio compared to glucose [20]: 2.8
Log2 differential normalized TPM ratio compared to lactose [20]: −2.9
Transcripts per million (rpm) [20]: 74 rpm
Log2 differential normalized TPM ratio compared to glucose (LBA1459 Galactokinase, COG G): 1.8
Log2 differential normalized TPM ratio compared to lactose (LBA1459 Galactokinase, COG G): −2.8
Transcripts per million (rpm) (LBA1459 Galactokinase, COG G): 70.3 rpm
Log2 differential normalized TPM ratio compared to glucose [21]: −0.5
Log2 differential normalized TPM ratio compared to lactose [21]: −6.5
Transcripts per million (rpm) [21]: 10.2 rpm
Log2 differential normalized TPM ratio compared to glucose [22]: 0.2
Log2 differential normalized TPM ratio compared to lactose [22]: −4.5
Transcripts per million (rpm) [22]: 50.7 rpm
Log2 differential normalized TPM ratio compared to glucose (LBA1464 Transposase, COG L): −0.1
Log2 differential normalized TPM ratio compared to lactose (LBA1464 Transposase, COG L): −2.5
Transcripts per million (rpm) (LBA1464 Transposase, COG L): 133.1 rpm
Log2 differential normalized TPM ratio compared to glucose [23]: −0.1
Log2 differential normalized TPM ratio compared to lactose [23]: −3.2
Transcripts per million (rpm) [23]: 43.7 rpm
Log2 differential normalized TPM ratio compared to glucose [24]: 3.3
Log2 differential normalized TPM ratio compared to lactose [24]: −5.5
Transcripts per million (rpm) [24]: 42.2 rpm
Log2 differential normalized TPM ratio compared to glucose [25]: 1.8
Log2 differential normalized TPM ratio compared to lactose [25]: −4.6
Transcripts per million (rpm) [25]: 61.3 rpm
Log2 differential normalized TPM ratio compared to glucose [26]: 3
Log2 differential normalized TPM ratio compared to lactose [26]: 2.3
Transcripts per million (rpm) [26]: 33 rpm
Log2 differential normalized TPM ratio compared to glucose [27]: 3.4
Log2 differential normalized TPM ratio compared to lactose [27]: 2.3
Transcripts per million (rpm) [27]: 32.6 rpm
Log2 differential normalized TPM ratio compared to glucose [28]: 3.6
Log2 differential normalized TPM ratio compared to lactose [28]: 2.6
Transcripts per million (rpm) [28]: 30.8 rpm
Log2 differential normalized TPM ratio compared to glucose [29]: 3.6
Log2 differential normalized TPM ratio compared to lactose [29]: 2.9
Transcripts per million (rpm) [29]: 37.3 rpm
Log2 differential normalized TPM ratio compared to glucose (LBA1485 Ribokinase, COG G): 3.5
Log2 differential normalized TPM ratio compared to lactose (LBA1485 Ribokinase, COG G): 2.8
Transcripts per million (rpm) (LBA1485 Ribokinase, COG G): 29.8 rpm
Log2 differential normalized TPM ratio compared to glucose [30]: −0.7
Log2 differential normalized TPM ratio compared to lactose [30]: −0.8
Transcripts per million (rpm) [30]: 2.6 rpm
Log2 differential normalized TPM ratio compared to glucose [31]: 2.6
Log2 differential normalized TPM ratio compared to lactose [31]: 1.6
Transcripts per million (rpm) [31]: 102.4 rpm
Log2 differential normalized TPM ratio compared to glucose [32]: 4.4
Log2 differential normalized TPM ratio compared to lactose [32]: 2.6
Transcripts per million (rpm) [32]: 1223.3 rpm
Log2 differential normalized TPM ratio compared to glucose [33]: −0.1
Log2 differential normalized TPM ratio compared to lactose [33]: −0.7
Transcripts per million (rpm) [33]: 180.2 rpm
Log2 differential normalized TPM ratio compared to glucose [34]: 6.6
Log2 differential normalized TPM ratio compared to lactose [34]: 4.7
Transcripts per million (rpm) [34]: 976.1 rpm
Log2 differential normalized TPM ratio compared to glucose [35]: 5.3
Log2 differential normalized TPM ratio compared to lactose [35]: 3.9
Transcripts per million (rpm) [35]: 113.8 rpm
Log2 differential normalized TPM ratio compared to glucose [36]: 2.5
Log2 differential normalized TPM ratio compared to lactose [36]: 2.1
Transcripts per million (rpm) [36]: 96.2 rpm
Log2 differential normalized TPM ratio compared to glucose [37]: 5.3
Log2 differential normalized TPM ratio compared to lactose [37]: 4.6
Transcripts per million (rpm) [37]: 1323.5 rpm
Log2 differential normalized TPM ratio compared to glucose [38]: 2.7
Log2 differential normalized TPM ratio compared to lactose [38]: 1.9
Transcripts per million (rpm) [38]: 18.5 rpm
Log2 differential normalized TPM ratio compared to glucose [39]: 2.8
Log2 differential normalized TPM ratio compared to lactose [39]: 1.4
Transcripts per million (rpm) [39]: 3.3 rpm
Log2 differential normalized TPM ratio compared to glucose [40]: 2.1
Log2 differential normalized TPM ratio compared to lactose [40]: 1.7
Transcripts per million (rpm) [40]: 26.7 rpm
Log2 differential normalized TPM ratio compared to glucose (LBA1723 Transposase, COG L): 2
Log2 differential normalized TPM ratio compared to lactose (LBA1723 Transposase, COG L): 1.8
Transcripts per million (rpm) (LBA1723 Transposase, COG L): 176.9 rpm
Log2 differential normalized TPM ratio compared to glucose [41]: 5.3
Log2 differential normalized TPM ratio compared to lactose [41]: 3.2
Transcripts per million (rpm) [41]: 520.3 rpm
Log2 differential normalized TPM ratio compared to glucose [42]: 2.7
Log2 differential normalized TPM ratio compared to lactose [42]: 3.9
Transcripts per million (rpm) [42]: 539.7 rpm
Log2 differential normalized TPM ratio compared to glucose (LBA1871 Neopullulanase, COG G): 4.3
Log2 differential normalized TPM ratio compared to lactose (LBA1871 Neopullulanase, COG G): 3.6
Transcripts per million (rpm) (LBA1871 Neopullulanase, COG G): 43.6 rpm
Log2 differential normalized TPM ratio compared to glucose [43]: 3.6
Log2 differential normalized TPM ratio compared to lactose [43]: 3.2
Transcripts per million (rpm) [43]: 30 rpm
Log2 differential normalized TPM ratio compared to glucose (LBA1873 Acetate kinase, COG C): 4.6
Log2 differential normalized TPM ratio compared to lactose (LBA1873 Acetate kinase, COG C): 3.2
Transcripts per million (rpm) (LBA1873 Acetate kinase, COG C): 67.3 rpm
Log2 differential normalized TPM ratio compared to glucose (LBA1878 Glycerol kinase, COG C): 1.4
Log2 differential normalized TPM ratio compared to lactose (LBA1878 Glycerol kinase, COG C): 1.3
Transcripts per million (rpm) (LBA1878 Glycerol kinase, COG C): 17.8 rpm
Log2 differential normalized TPM ratio compared to glucose [44]: 3.8
Log2 differential normalized TPM ratio compared to lactose [44]: 4.2
Transcripts per million (rpm) [44]: 5835.9 rpm
number of up-regulated genes (RNA-seq, compared to glucose): 116 genes
number of uniquely induced genes (RNA-seq, up-regulated genes not shared with the other PGs): 58
Log2 differential normalized TPM ratio compared to glucose [45]: −3
Log2 differential normalized TPM ratio compared to lactose [45]: −3.8
Transcripts per million (rpm) [45]: 29.9 rpm
Log2 differential normalized TPM ratio compared to glucose [46]: 2
Log2 differential normalized TPM ratio compared to lactose [46]: 1.2
Transcripts per million (rpm) [46]: 1625.4 rpm
Log2 differential normalized TPM ratio compared to glucose [47]: 2.1
Log2 differential normalized TPM ratio compared to lactose [47]: 1.4
Transcripts per million (rpm) [47]: 55.9 rpm
